Assays:
Beta-secretase 1 [1] = target: T1, Beta-secretase 1 (Homo sapiens, UniProt P56817); test: Inhibition of soluble APPbeta N-terminal fragment production in HEK293T cells; assay type: functional, cell-based, HEK-293T
Beta-secretase 1 [2] = target: T1, Beta-secretase 1; test: Inhibition of BACE1
[3] = Apparent permeability of the compound; assay type: ADME; settings: not told

T1 sequence (P56817 whole entry, the tested form may be a part): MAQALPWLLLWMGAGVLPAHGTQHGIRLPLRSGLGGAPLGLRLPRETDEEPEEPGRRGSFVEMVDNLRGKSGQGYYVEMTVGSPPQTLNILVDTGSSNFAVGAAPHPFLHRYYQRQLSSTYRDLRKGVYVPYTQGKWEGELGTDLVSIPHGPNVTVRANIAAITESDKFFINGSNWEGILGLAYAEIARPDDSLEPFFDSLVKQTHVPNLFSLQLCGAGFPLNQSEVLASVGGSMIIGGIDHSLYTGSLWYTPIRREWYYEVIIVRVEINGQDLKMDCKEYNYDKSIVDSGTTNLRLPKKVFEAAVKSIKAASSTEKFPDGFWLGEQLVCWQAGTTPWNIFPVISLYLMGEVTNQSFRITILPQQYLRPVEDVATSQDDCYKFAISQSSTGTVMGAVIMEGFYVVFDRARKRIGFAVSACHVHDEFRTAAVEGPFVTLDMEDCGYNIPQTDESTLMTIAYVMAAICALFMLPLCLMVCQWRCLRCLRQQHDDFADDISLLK

SMILES | IC50 (Beta-secretase 1 [1]) | IC50 (Beta-secretase 1 [2]) | Papp [3]
CC(C)CNC(=O)[C@H](C)NC[C@H](Cc1ccccc1)NC(=O)c1cc(CCC2C[C@@H]2C)cc(N(C)S(C)(=O)=O)c1 (stereo partly specified) | 23 nM | 20 nM | 24 ×10⁻⁶ cm/s
CCC[C@H](NC[C@H](Cc1ccccc1)NC(=O)c1cc(C(=O)N[C@H](C)c2ccc(F)cc2)cc(N(C)S(C)(=O)=O)c1)C(=O)NCC(C)C | 17 nM | 4 nM | –
CC(C)CNC(=O)[C@H](CCS(C)(=O)=O)NC[C@H](Cc1ccccc1)NC(=O)c1cc(C(=O)N[C@H](C)c2ccc(F)cc2)cc(N(C)S(C)(=O)=O)c1 | 17500 nM | 13 nM | –
C[C@H](NC[C@H](Cc1ccccc1)NC(=O)c1cc(C(=O)N[C@H](C)c2ccc(F)cc2)cc(N(C)S(C)(=O)=O)c1)C(=O)NCc1ccccc1 | 731 nM | 139 nM | –
C[C@@H](NC(=O)c1cc(C(=O)N[C@@H](Cc2ccccc2)[C@H](O)CNC2CC2)cc(N(C)S(C)(=O)=O)c1)c1ccc(F)cc1 | – | – | 0.6 ×10⁻⁶ cm/s
CC(C)CNC(=O)[C@H](CCO)NC[C@H](Cc1ccccc1)NC(=O)c1cc(C(=O)N[C@H](C)c2ccc(F)cc2)cc(N(C)S(C)(=O)=O)c1 | 751 nM | 13 nM | –

The remaining lines, values ahead:

IC50 (Beta-secretase 1 [1]) | IC50 (Beta-secretase 1 [2]) | Papp [3] | SMILES
242 nM | 52 nM | – | CCNC(=O)[C@H](C)NC[C@H](Cc1ccccc1)NC(=O)c1cc(C(=O)N[C@H](C)c2ccc(F)cc2)cc(N(C)S(C)(=O)=O)c1
133 nM | 24 nM | – | C[C@H](NC[C@H](Cc1ccccc1)NC(=O)c1cc(C(=O)N[C@H](C)c2ccc(F)cc2)cc(N(C)S(C)(=O)=O)c1)C(=O)NC1CC1
20 nM | 7 nM | – | CC[C@H](NC[C@H](Cc1ccccc1)NC(=O)c1cc(C(=O)N[C@H](C)c2ccc(F)cc2)cc(N(C)S(C)(=O)=O)c1)C(=O)NCC(C)C
– | 5900 nM | – | C[C@@H](NC(=O)c1cc(C(=O)N[C@H](CN)Cc2ccccc2)cc(N(C)S(C)(=O)=O)c1)c1ccc(F)cc1
> 20000 nM | 17200 nM | – | C[C@H](NC[C@H](Cc1ccccc1)NC(=O)c1cc(C(=O)N[C@H](C)c2ccc(F)cc2)cc(N(C)S(C)(=O)=O)c1)C(=O)N1CCC[C@H]1C(=O)O
22 nM | – | 10 ×10⁻⁶ cm/s | CC(C)CNC(=O)[C@H](C)NC[C@H](Cc1ccccc1)NC(=O)c1cc(C(=O)N[C@H](C)c2ccc(F)cc2)cc(N(C)S(C)(=O)=O)c1
– | 630 nM | – | C[C@@H](NC(=O)c1cc(C(=O)N[C@H](CO)Cc2ccccc2)cc(N(C)S(C)(=O)=O)c1)c1ccc(F)cc1
3710 nM | 117 nM | – | CC(C)CNC(=O)CNC[C@H](Cc1ccccc1)NC(=O)c1cc(C(=O)N[C@H](C)c2ccc(F)cc2)cc(N(C)S(C)(=O)=O)c1

From ChEMBL document CHEMBL1138941, “BACE-1 inhibition by a series of psi[CH2NH] reduced amide isosteres” (Bioorg Med Chem Lett, 2006)
